Results reported in PubChem BioAssay AID330 (DTP/NCI, 2004).
Values joined by “and” are separate entries in the source; they are usually repeats but may differ in a detail not shown here. Equal values may be shown once. Inconclusive results and toxic doses are left out. Numbered stars: 1 amine (or outer) side, 2 acyl side, 3 side chain; on linkers, the order of the positions; unused ones are H or OH. Bridge positions count the residues as written; N and C are the ends. Square brackets hold non-standard residues; d marks the D form. Peptide text beside a SMILES is read from it. I, II: the chains in the order shown. Actinocin(9to1) = Cc1c2oc3c(C)ccc(C(=O)[*:1])c3nc-2c(C(=O)[*:2])c(N)c1=O; NMeV = CN[CH](C(=O)O)C(C)C; Sar = CNCC(=O)O

System: P388 leukemia ip, CD2F1 mice, survival T/C
Assay: NCI In Vivo Anticancer Drug Screen. Data for tumor model P388 Leukemia (intraperitoneal) in CD2F1 (CDF1) mice
Details: endpoint: median survival time, higher = longer survival
Procedure, shortened: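 Mice carrying the transplanted tumor received test compound or vehicle. Survival was recorded in each group, and the value is the treated-group measurement divided by that of the vehicle-treated control group.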

[1] = dose: 50.0 mg/kg/injection, schedule: Q01DX005 (ip), vehicle: saline with Tween-80
[2] = dose: 100.0 mg/kg/injection, schedule: Q01DX005 (ip), vehicle: saline with Tween-80
[3] = dose: 50.0 mg/kg/injection, schedule: Q01DX009 (ip), vehicle: saline
[4] = dose: 60.0 mg/kg/injection, schedule: Q01DX005 (ip), vehicle: saline with Tween-80
[5] = dose: 120.0 mg/kg/injection, schedule: Q01DX005 (ip), vehicle: saline with Tween-80
[6] = dose: 240.0 mg/kg/injection, schedule: Q01DX005 (ip), vehicle: saline with Tween-80
[7] = dose: 60.0 mg/kg/injection, schedule: Q01DX005 (ip), vehicle: Klucel (hydroxypropylcellulose) (HPC)
[8] = dose: 120.0 mg/kg/injection, schedule: Q01DX005 (ip), vehicle: Klucel (hydroxypropylcellulose) (HPC)
[9] = dose: 240.0 mg/kg/injection, schedule: Q01DX005 (ip), vehicle: Klucel (hydroxypropylcellulose) (HPC)
[10] = dose: 60.0 mg/kg/injection, schedule: Q01DX005 (ip), vehicle: saline
[11] = dose: 120.0 mg/kg/injection, schedule: Q01DX005 (ip), vehicle: saline
[12] = dose: 240.0 mg/kg/injection, schedule: Q01DX005 (ip), vehicle: saline
[13] = dose: 12.5 mg/kg/injection, schedule: Q01DX009 (ip), vehicle: saline
[14] = dose: 25.0 mg/kg/injection, schedule: Q01DX009 (ip), vehicle: saline
[15] = dose: 25.0 mg/kg/injection, schedule: Q04DX003 (ip), vehicle: saline
[16] = dose: 50.0 mg/kg/injection, schedule: Q04DX003 (ip), vehicle: saline

`CC1(C)O[C@H]2CC(=O)OC[C@]23[C@H]2CC[C@@]4(C)C(c5ccoc5)OC(=O)[C@H]5O[C@]54[C@]2(C)[C@@H](OC(=O)CCl)C[C@@H]13` (stereo partly specified) was tested, and the T/C (dose: 0.5 mg/kg/injection, schedule: Q01DX009 (ip), vehicle: saline + alcohol) was 113 % of control and the T/C (dose: 1.0 mg/kg/injection, schedule: Q01DX009 (ip), vehicle: saline + alcohol) was 111 % of control.
`CC(C)CC(=O)C1C(c2ccccc2)CC(=O)C(C(C)C)C1c1ccccc1` (stereo unspecified) was tested, and the T/C [1] was 92 % of control and the T/C [2] was 92 % of control.
`Cc1c2oc3c(C)ccc(C(=O)NC4C(=O)NC(C(C)C)C(=O)N5CCCC5C(=O)N(C)CC(=O)N(C)C(C(C)C)C(=O)OC4C)c3nc-2c(C(=O)NC2C(=O)NC(C(C)C)C(=O)N3CCCC3C(=O)N(C)CC(=O)N(C)C(C(C)C)C(=O)OC2C)c(N)c1=O` (stereo unspecified) (I: TVP[Sar][NMeV] / II: TVP[Sar][NMeV]; ester I:1-I:C, II:1-II:C; linker I:N-II:N via Actinocin(9to1); configuration not given here) was tested, and the T/C (dose: 0.1 mg/kg/injection, schedule: Q01DX009 (ip), vehicle: distilled water + Tween-80) was 178 % of control, the T/C (dose: 0.2 mg/kg/injection, schedule: Q01DX009 (ip), vehicle: distilled water + Tween-80) was 190 % of control and the T/C (dose: 0.2 mg/kg/injection, schedule: Q01DX009 (ip), vehicle: water) was 151 % of control. The T/C (dose: 0.4 mg/kg/injection, schedule: Q01DX009 (ip), vehicle: distilled water + Tween-80) was 207 % of control and the T/C (dose: 0.4 mg/kg/injection, schedule: Q01DX009 (ip), vehicle: water) was 174 % of control.
With `Cn1cnc([N+](=O)[O-])c1C(=O)O` the T/C [3] was 107 % of control and the T/C (dose: 100.0 mg/kg/injection, schedule: Q01DX009 (ip), vehicle: saline) was 89 % of control.
With `Nc1[nH]c(=S)ncc1-c1ccccc1Cl` the T/C [4] was 98 % of control, the T/C [5] was 95 % of control and the T/C [6] was 93 % of control.
For `c1ccc(-c2csnn2)cc1`, the T/C (dose: 25.0 mg/kg/injection, schedule: Q04DX003 (ip), vehicle: saline with Tween-80) was 99 % of control, the T/C (dose: 50.0 mg/kg/injection, schedule: Q04DX003 (ip), vehicle: saline with Tween-80) was 100 % of control and the T/C (dose: 100.0 mg/kg/injection, schedule: Q04DX003 (ip), vehicle: saline with Tween-80) was 99 % of control. For the same compound, the T/C (dose: 200.0 mg/kg/injection, schedule: Q04DX003 (ip), vehicle: saline with Tween-80) was 106 % of control.
`CCC1C(OC)=CC(CC)(C(=O)OC)C=C1OC` (stereo unspecified) was tested, and the T/C [1] was 100 % of control, the T/C [2] was 107 % of control and the T/C (dose: 200.0 mg/kg/injection, schedule: Q01DX005 (ip), vehicle: saline with Tween-80) was 107 % of control.
For `COC1=C2CCC3c4cc(OC)c(OC)cc4CC[N+]3=C2CC1` (stereo unspecified), the T/C (dose: 25.0 mg/kg/injection, schedule: Q01DX005 (ip), vehicle: Klucel (hydroxypropylcellulose) (HPC)) was 97 % of control, the T/C (dose: 50.0 mg/kg/injection, schedule: Q01DX005 (ip), vehicle: Klucel (hydroxypropylcellulose) (HPC)) was 99 % of control and the T/C (dose: 100.0 mg/kg/injection, schedule: Q01DX005 (ip), vehicle: Klucel (hydroxypropylcellulose) (HPC)) was 113 % of control.
In the case of `COC(=O)NC1CCC(=O)N1Cc1ccccc1` (stereo unspecified), the T/C [4] is reported as 96 % of control, the T/C [5] is reported as 94 % of control and the T/C [6] is reported as 102 % of control.
`O=C(CCc1ccccc1)c1c(O)c(Cc2ccccc2O)c2c(c1O)Cc1ccccc1O2` was tested, and the T/C (dose: 1.5 mg/kg/injection, schedule: Q01DX009 (ip), vehicle: Klucel (hydroxypropylcellulose) (HPC)) was 100 % of control, the T/C (dose: 3.0 mg/kg/injection, schedule: Q01DX009 (ip), vehicle: Klucel (hydroxypropylcellulose) (HPC)) was 98 % of control and the T/C (dose: 6.0 mg/kg/injection, schedule: Q01DX009 (ip), vehicle: Klucel (hydroxypropylcellulose) (HPC)) was 98 % of control. For the same compound, the T/C (dose: 12.0 mg/kg/injection, schedule: Q01DX009 (ip), vehicle: Klucel (hydroxypropylcellulose) (HPC)) was 98 % of control.
In the case of `CN1C(c2ccccc2)=NN=C(C(F)(F)F)N1C`, the T/C (dose: 100.0 mg/kg/injection, schedule: Q01DX001 (ip), vehicle: distilled water + Tween-80 + alcohol) is reported as 98 % of control, the T/C (dose: 200.0 mg/kg/injection, schedule: Q01DX001 (ip), vehicle: distilled water + Tween-80 + alcohol) is reported as 101 % of control and the T/C (dose: 400.0 mg/kg/injection, schedule: Q01DX001 (ip), vehicle: distilled water + Tween-80 + alcohol) is reported as 106 % of control.
In the case of `O=C(Nc1c(Cl)cccc1Cl)OCc1ccco1`, the T/C [7] is reported as 105 % of control, the T/C [8] is reported as 102 % of control and the T/C [9] is reported as 100 % of control.
`COC(=O)C1=C(N2CCCC2)C2c3ccccc3SC12C(=O)OC` (stereo unspecified) was tested, and the T/C [7] was 104 % of control, the T/C [8] was 98 % of control and the T/C [9] was 94 % of control.
`CC(=O)Cc1cc(-c2cc(CC(C)=O)nc(N)n2)nc(N)n1` was tested, and the T/C [10] was 96 % of control, the T/C [11] was 96 % of control and the T/C [12] was 97 % of control.
With `O=C(O)c1ccc(=O)oc1` the T/C (dose: 12.5 mg/kg/injection, schedule: Q01DX009 (ip), vehicle: saline with Tween-80) was 98 % of control, the T/C (dose: 25.0 mg/kg/injection, schedule: Q01DX009 (ip), vehicle: saline with Tween-80) was 94 % of control and the T/C (dose: 50.0 mg/kg/injection, schedule: Q01DX009 (ip), vehicle: saline with Tween-80) was 116 % of control. The T/C (dose: 100.0 mg/kg/injection, schedule: Q01DX009 (ip), vehicle: saline with Tween-80) was 116 % of control.
`CC1CCC(C)N1P(=O)(N1CC1)N1CC1` (stereo unspecified) was tested, and the T/C (dose: 6.25 mg/kg/injection, schedule: Q04DX003 (ip), vehicle: saline) was 108 % of control, the T/C [13] was 110 % of control and the T/C [14] was 90 % of control. For the same compound, the T/C [15] was 160 % of control and 200 % of control and the T/C [16] was 155 % of control.
In the case of `Cc1ccc(-c2cc(-c3cc(-c4ccc(C)cc4)nc(N)n3)nc(N)n2)cc1`, the T/C [10] is reported as 90 % of control, the T/C [11] is reported as 96 % of control and the T/C [12] is reported as 97 % of control.
`Cc1cc(NCCCCCCNc2cc(C)[n+](C)c3c(Cl)cccc23)c2cccc(Cl)c2[n+]1C` was tested, and the T/C (dose: 3.12 mg/kg/injection, schedule: Q01DX005 (ip), vehicle: suspension in saline) was 108 % of control, the T/C (dose: 6.25 mg/kg/injection, schedule: Q01DX005 (ip), vehicle: suspension in saline) was 99 % of control and the T/C (dose: 12.5 mg/kg/injection, schedule: Q01DX005 (ip), vehicle: suspension in saline) was 108 % of control.
For `Cc1c2c(nc3ccccc13)-c1ccccc1C(C)(C)C2O` (stereo unspecified), the T/C (dose: 100.0 mg/kg/injection, schedule: Q01DX001 (ip), vehicle: saline with Tween-80) was 99 % of control, the T/C (dose: 200.0 mg/kg/injection, schedule: Q01DX001 (ip), vehicle: saline with Tween-80) was 106 % of control and the T/C (dose: 400.0 mg/kg/injection, schedule: Q01DX001 (ip), vehicle: saline with Tween-80) was 106 % of control.
With `Cc1cc(O)c2c(c1)C(=O)c1cccc(O)c1C2=O` the T/C (dose: 6.25 mg/kg/injection, schedule: Q01DX009 (ip), vehicle: saline) was 100 % of control, the T/C [13] was 111 % of control and the T/C [14] was 117 % of control. For the same compound, the T/C [3] was 108 % of control.
For `COc1cc2c3c4c(ccc3c1OC)CCCN4CC2`, the T/C (dose: 50.0 mg/kg/injection, schedule: Q01DX005 (ip), vehicle: Klucel + Tween-80) was 99 % of control and the T/C (dose: 100.0 mg/kg/injection, schedule: Q01DX005 (ip), vehicle: Klucel + Tween-80) was 97 % of control.
In the case of `Cc1ccc2c(c1)C(=Nc1ccc(Cl)cc1)C(=O)N2`, the T/C (dose: 0.93 mg/kg/injection, schedule: Q01DX005 (ip), vehicle: saline with Tween-80) is reported as 101 % of control, the T/C (dose: 1.87 mg/kg/injection, schedule: Q01DX005 (ip), vehicle: saline with Tween-80) is reported as 93 % of control and the T/C (dose: 3.75 mg/kg/injection, schedule: Q01DX005 (ip), vehicle: saline with Tween-80) is reported as 87 % of control. The T/C (dose: 15.0 mg/kg/injection, schedule: Q01DX005 (ip), vehicle: saline with Tween-80) was 87 % of control, the T/C [4] was 99 % of control and the T/C [5] was 87 % of control. The T/C [6] was 95 % of control.
With `Cc1cccc(NC(=O)c2ccccc2)n1` the T/C (dose: 12.5 mg/kg/injection, schedule: Q04DX003 (ip), vehicle: saline) was 104 % of control, the T/C [15] was 100 % of control and the T/C [16] was 90 % of control.
In the case of `COc1ccc(-c2cc(=O)c3c(O)c(OC)c(OC)cc3o2)cc1O`, the T/C (dose: 18.8 mg/kg/injection, schedule: Q04DX002 (ip), vehicle: saline with Tween-80) is reported as 96 % of control, the T/C (dose: 37.5 mg/kg/injection, schedule: Q04DX002 (ip), vehicle: saline with Tween-80) is reported as 102 % of control and the T/C (dose: 75.0 mg/kg/injection, schedule: Q04DX002 (ip), vehicle: saline with Tween-80) is reported as 93 % of control. For the same compound, the T/C (dose: 150.0 mg/kg/injection, schedule: Q04DX002 (ip), vehicle: saline with Tween-80) was 96 % of control.
